Experimental data: patent publication US20110009335A1, “Anticancer Treatments” (priority 2008, published 2011)
Starred links: 1 amine or outer side, 2 acyl side, 3 side chain; linkers in the order of their positions; H or OH if unused. Positions of bridges follow the written chain, without caps; N, C: chain ends. Non-standard residues stand in square brackets, D forms with d. Residues, ends and D or L forms follow the SMILES beside them. *: point of attachment. X1 = CC[C@H](C)[C@@H](N[*:1])[C@@H](O)CC(=O)O[C@H](C(=O)[C@H](C)C(=O)[*:2])C(C)C; NMeY = CN[C@@H](Cc1ccc(O)cc1)C(=O)O; dNMeL = CN[C@H](CC(C)C)C(=O)O; Pyruvoyl = CC(=O)C(=O)*

Columns and labels:
Format in all cases: in vivo
[1] = system: MRI-H-121 human renal tumor xenograft; test: Aplidine with sorafenib, MRI-H-121 xenograft in athymic nude mice (Example 1)
Experimental: (§1) Female athymic nude mice (Harlan Sprague Dawley, Madison, Wis.) were utilized for all experiments. Mice were implanted with tumor fragments or a cell suspension when mice were 5 weeks of age. Animals were housed in ventilated rack caging, 5 mice per cage, with food and water ad libitum. The mice were acclimated for 1 week prior to being implanted with tumor fragments or cell suspensions.
Tumor measurements were determined by using Vernier calipers. The formula to calculate volume for a prolate ellipsoid was used to estimate tumor volume (mm^3) from 2-dimensional tumor measurements: Tumor volume (mm^3)=[L×W^2]÷2, where L is the length and it is the longest diameter in mm, and W is the width and it is the shortest diameter in mm of a tumor. Assuming unit density, volume was converted to weight (i.e., 1 mm^3=1 mg).
(§2) Body weights were recorded on treatment days and when tumor sizes were measured. In those days wherein the two drugs were administered the same day, the combination therapy groups were treated by co-administering the two drugs at the same time, with no attempt to sequence the treatments.
(§3) Aplidine was provided in the form of vials of lyophilized aplidine powder which was reconstituted in Cremophor EL/ethanol/water (CEW) 15/15/70 to a concentration of 0.5 mg/ml. Then the aplidine solution in CEW was diluted in 0.9% Saline to the dosing formulation concentrations, being the final proportion of CEW of 0.18/0.18/0.84.
(§4) Tumor size measurements were recorded twice weekly from the treatment initiation until the termination of the study.
(§5) Mean, standard deviation and standard error of the mean were determined for tumor volume for all animal groups at all assessments. Student's t test was performed on tumor volumes at each measurement day, including at the end of the study, to determine whether there were any statistically significant differences between combination treatment groups and single monotherapy treatment groups.
Determine the % of tumor growth inhibition, as 100−% T/C, for each of the drugs administered as monotherapy at the doses used in the combinations. % T/C was obtained by comparing the mean tumor weight in the treatment groups (T) to the mean tumor weight in the control group (C) (T/C×100%). • 2. The two scores were added together to determine the “expected response” if each agent produced the same response as it did when administered as monotherapy. • 3. This “expected response” was subtracted from the % of tumor growth inhibition determined for the combination therapy group: • a. A negative number meant that the effect of combining the two drugs was less than additive. • b. If the resulting number was close to zero, the effect of combining the two drugs was determined as additive. • c.

[2] = system: CAKI-1 human renal tumor xenograft; test: Aplidine with sunitinib, CAKI-1 xenograft in athymic nude mice (Example 2); details: doses and schedules tested
Experimental: as §1
Cells from in vitro passage 4-20 were implanted SC into study mice: 5×10^6 cells/mouse in 0.2 ml 50% Matrigel/50% medium without antibiotics or serum, using a 23 G needle and 1 cc syringe. Bacterial cultures were performed on aliquots of the cells prepared for implantation.
Tumor measurements were determined as disclosed in Example 1.
Body weights were recorded on treatment days and when tumor sizes were measured. In those days wherein the two drugs were administered the same day, the combination therapy groups were treated by co-administering the two drugs at the same time, with no attempt to sequence the treatments. […]
as §4
Mean, standard deviation and standard error of the mean were determined for tumor volume for all animal groups at all assessments. […]

[3] = system: CAKI-1 human renal tumor xenograft; test: Aplidine with temsirolimus, CAKI-1 xenograft in athymic nude mice (Example 4); details: for % Inhibition G2: aplidine 0.06 mg/kg/day; for antitumor activity as single agent (monotherapy): temsirolimus 10 and 20 mg/kg/day; for % Inhibition G4: temsirolimus 10 mg/kg/day; for % Inhibition G3: temsirolimus 20 mg/kg/day
Experimental: Female athymic nude mice (Harlan Sprague Dawley, Madison, Wis.) were utilized for all experiments. Mice were implanted with a cell suspension when mice were 6-8 weeks of age. Animals were housed in ventilated rack caging with food and water ad libitum. The mice were acclimated for at least 5 days prior to tumor implantation. […] The tumor model used in this study was CAKI-1, which was implanted in the animals as disclosed in Example 2.
Tumor measurements were determined as disclosed in Example 1. When tumor growth was within an average size range of 140±34 mg (mean±SD), mice were randomized into the treatment and control groups based on tumor weight by using LabCat® In Life module V 8.0 SP1 tumor tracking and measurement software.
as §2, with “The treatment of CAKI-1-tumor-bearing mice was initiated on DPI (Day Post Implantation) 21. Body” for “Body”
as §3, with “The” for “Then the”
Temsirolimus was provided in the form of vials containing a non-aqueous, ethanolic, sterile solution of temsirolimus, 25 mg/ml. […] Then, the solution was further diluted in 0.9% Saline to the dosing formulation concentrations.
Tumor size measurements were recorded twice weekly from the treatment initiation until the termination of the study. Tumor growth inhibition was assessed comparing the mean tumor weight between the two agents in combination (aplidine and temsirolimus) against temsirolimus mean tumor weight at the different concentrations assayed.
as §5
The definition and criteria for the evaluation of potentiation and the degree of additivity for the combination therapy were the same as those disclosed in Example 1.

[4] = aplidine 0.040 and/or sorafenib 30 mg/kg/day
[5] = aplidine 0.060 and/or sorafenib 60 mg/kg/day
[6] = G2: aplidine 0.060 mg/kg/day IP
[7] = G3: temsirolimus 20 mg/kg/day IP
[8] = G4: temsirolimus 10 mg/kg/day IP

Structure (SMILES): CC[C@H](C)[C@H]1NC(=O)[C@@H](NC(=O)[C@@H](CC(C)C)N(C)C(=O)[C@@H]2CCCN2C(=O)C(C)=O)[C@@H](C)OC(=O)[C@H](Cc2ccc(OC)cc2)N(C)C(=O)[C@@H]2CCCN2C(=O)[C@H](CC(C)C)NC(=O)[C@@H](C)C(=O)[C@H](C(C)C)OC(=O)C[C@@H]1O [aplidine, dehydrodidemnin B] (Pyruvoyl-P[dNMeL]T[X1]LP[NMeY](Me); ester 3-C)
- % T/C on day 14 [1, 4]: 103.5%
- % T/C on day 16 [1, 4]: 104.0%
- % T/C on day 20 [1, 4]: 85.1%
- % T/C on day 23 [1, 4]: 85.9%
- % T/C on day 27 [1, 4]: 94.1%
- % T/C on day 30 [1, 4]: 86.4%
- % T/C on day 34 [1, 4]: 91.0%
- % T/C on day 37 [1, 4]: 85.6%
- % T/C on day 41 [1, 4]: 92.5%
- % T/C on day 44 [1, 4]: 93.9%
- % T/C on day 48 [1, 4]: 94.9%
- % T/C on day 14 [1, 5]: 102.0%
- % T/C on day 16 [1, 5]: 97.5%
- % T/C on day 20 [1, 5]: 81.5%
- % T/C on day 23 [1, 5]: 73.9%
- % T/C on day 27 [1, 5]: 98.4%
- % T/C on day 30 [1, 5]: 88.5%
- % T/C on day 34 [1, 5]: 75.8%
- % T/C on day 37 [1, 5]: 75.0%
- % T/C on day 41 [1, 5]: 88.3%
- % T/C on day 44 [1, 5]: 90.2%
- % T/C on day 48 [1, 5]: 95.5%
- antitumor activity as single agent (monotherapy) ([1]; doses and schedules tested, sorafenib 60 or 30 mg/kg/day): refractory
- antitumor activity as single agent (monotherapy) [2]: inactive
- % T/C on day 21 [3, 6]: 98.2%
- % T/C on day 24 [3, 6]: 94.6%
- % T/C on day 27 [3, 6]: 75.6%
- % T/C on day 30 [3, 6]: 66.0%
- % T/C on day 34 [3, 6]: 81.0%
- % T/C on day 38 [3, 6]: 91.1%
- % T/C on day 42 [3, 6]: 84.1%
- % T/C on day 45 [3, 6]: 80.7%
- % T/C on day 48 [3, 6]: 80.1%
- % T/C on day 56 [3, 6]: 89.8%
- % T/C on day 58 [3, 6]: 89.9%
- % Inhibition G2 ([3]; day 21): 1.8%
- % Inhibition G2 ([3]; day 24): 5.4%
- % Inhibition G2 ([3]; day 27): 24.4%
- % Inhibition G2 ([3]; day 30): 34.0%
- % Inhibition G2 ([3]; day 34): 19.0%
- % Inhibition G2 ([3]; day 38): 8.9%
- % Inhibition G2 ([3]; day 42): 15.9%
- % Inhibition G2 ([3]; day 45): 19.3%
- % Inhibition G2 ([3]; day 48): 19.9%
- % Inhibition G2 ([3]; day 56): 10.2%
- % Inhibition G2 ([3]; day 58): 10.1%
- antitumor activity as single agent (monotherapy) [3]: inactive

Structure (SMILES): CO[C@H]1C[C@@H]2CC[C@@H](C)[C@@](O)(O2)C(=O)C(=O)N2CCCC[C@H]2C(=O)O[C@H]([C@H](C)C[C@@H]2CC[C@@H](OC(=O)C(C)(CO)CO)[C@H](OC)C2)CC(=O)[C@H](C)/C=C(\C)[C@@H](O)[C@@H](OC)C(=O)[C@H](C)C[C@H](C)/C=C/C=C/C=C/1C [temsirolimus]
- % T/C on day 21 [3, 7]: 98.3%
- % T/C on day 24 [3, 7]: 76.7%
- % T/C on day 27 [3, 7]: 75.3%
- % T/C on day 30 [3, 7]: 47.0%
- % T/C on day 34 [3, 7]: 42.2%
- % T/C on day 38 [3, 7]: 48.0%
- % T/C on day 42 [3, 7]: 51.9%
- % T/C on day 45 [3, 7]: 58.9%
- % T/C on day 48 [3, 7]: 63.6%
- % T/C on day 56 [3, 7]: 75.3%
- % T/C on day 58 [3, 7]: 78.8%
- % T/C on day 21 [3, 8]: 95.7%
- % T/C on day 24 [3, 8]: 69.9%
- % T/C on day 27 [3, 8]: 81.3%
- % T/C on day 30 [3, 8]: 53.2%
- % T/C on day 34 [3, 8]: 50.4%
- % T/C on day 38 [3, 8]: 51.1%
- % T/C on day 42 [3, 8]: 60.3%
- % T/C on day 45 [3, 8]: 66.7%
- % T/C on day 48 [3, 8]: 66.2%
- % T/C on day 56 [3, 8]: 73.4%
- % T/C on day 58 [3, 8]: 76.5%
- % Inhibition G4 ([3]; day 21): 4.3%
- % Inhibition G4 ([3]; day 24): 30.1%
- % Inhibition G4 ([3]; day 27): 18.7%
- % Inhibition G4 ([3]; day 30): 46.8%
- % Inhibition G4 ([3]; day 34): 49.6%
- % Inhibition G4 ([3]; day 38): 48.9%
- % Inhibition G4 ([3]; day 42): 39.7%
- % Inhibition G4 ([3]; day 45): 33.3%
- % Inhibition G4 ([3]; day 48): 33.8%
- % Inhibition G4 ([3]; day 56): 26.6%
- % Inhibition G4 ([3]; day 58): 23.5%
- % Inhibition G3 ([3]; day 21): 1.7%
- % Inhibition G3 ([3]; day 24): 23.3%
- % Inhibition G3 ([3]; day 27): 24.7%
- % Inhibition G3 ([3]; day 30): 53.0%
- % Inhibition G3 ([3]; day 34): 57.8%
- % Inhibition G3 ([3]; day 38): 52.0%
- % Inhibition G3 ([3]; day 42): 48.1%
- % Inhibition G3 ([3]; day 45): 41.1%
- % Inhibition G3 ([3]; day 48): 36.4%
- % Inhibition G3 ([3]; day 56): 24.7%
- % Inhibition G3 ([3]; day 58): 21.2%
- antitumor activity as single agent (monotherapy) [3]: did not meet the NCI criteria for activity
